Measured values as given in patent US10016517B2, “Bioactive amphiphilic polymer stabilized nanoparticles with enhanced stability and activity” (RUTGERS, THE STATE UNIVERSITY OF NEW JERSEY, priority 2011, dated 2018).

System: human MDMs
Experiment: DiO oxLDL uptake by PBMC derived macrophages
Format: cell-based
Conditions: MDMs co-incubated with PEG-b-PLA NPs loaded with M12 and DiO oxLDL
Experimental: Peripheral blood mononuclear cells (PBMC) were isolated from human buffy coats (Blood Center of New Jersey; East Orange, N.J.) by Ficoll-Paque (1.077 g mL^−1; GE Healthcare) density gradient. Monocytes were selected by plate adherence after two hours by washing thrice with PBS and cultured for 7 days in RPMI 1640 (ATCC) with 10% FBS, 1% Penicillin/Streptomycin and 50 ng mL^−1 M-CSF for differentiation into macrophages (MDM). Media was exchanged every two to three days. Primary Human Coronary Artery Smooth Muscle Cells (CASMC) (Lonza) between passages 3-6 were cultured in SM-GM2 media (Lonza). CASMC were plated on Type I Collagen coated wells for cytotoxicity experiments. […]
Human MDMs were co-incubated with 5 μg mL^−1 of 3,3′-dioctadecyloxacarbocyanine (DiO) labeled oxLDL (Kalen Biomedical; Montgomery Village, Md.) and either NPs or micelles for 24 h in the presence of 0 (serum-free), 5, 10 or 20% FBS. […] Cells were fixed and counterstained with Hoechst 33342 before epifluorescent imaging on a Nikon Eclipse TE2000-S. Uptake of oxLDL in MDMs was quantified by ImageJ and normalized to cell count. Analyzed data were from three independent experiments performed in triplicate.
Inhibition of oxLDL uptake in human MDMs by AM NPs and analogous micellar systems were determined (FIG. 3B-C). […] Uptake of oxLDL in MDMs was determined by ImageJ analysis of epifluorescent images. […]

Substance: mucic acid modified with lauroyl groups [M12]
- therapeutic efficacy towards inhibiting oxLDL uptake: no therapeutic efficacy
